In data set [1] the test system is dysphagia in patient with Prader-Willi syndrome. Put plainly: Case report PATIENT 1: daily intranasal oxytocin, videofluoroscopic swallow study (VFSS). To be noted: PWS patient, 8 IU daily intranasal, 3 weeks. Format: in vivo, human. From the text: PATIENT 1 was […] with Prader-Willi syndrome due to maternal uniparental disomy diagnosed soon after at birth.
The videofluoroscopic swallow study (VFSS) was abnormal with prolonged oesophageal transit and decreased peristalsis and abnormal closure of upper oesophageal sphincter.
They received 8IU of daily intranasal OXT during 3 weeks.

In data set [2] the test system is dysphagia in patient with neurodevelopmental disorder and hypothalamic disorder. Description: Case report PATIENT 2: daily intranasal oxytocin, VFSS and clinical symptoms. Format: in vivo, human. To be noted: 16 IU daily intranasal, 3 weeks. An excerpt: PATIENT 2 was […]. They suffered from neurodevelopmental disorder and presented hypothalamic disorder.
The VFSS was abnormal including slow pharyngeal transit with pharyngeal residues and slow oesophageal transit with oesophageal reflux and stasis.
They received daily 16 IU of intranasal OXT during 3 weeks.

Data set [3] concerns infants with PWS under 6 months old. To be noted: cited from earlier work.

Entries after “also recorded” stand apart in the source; their conditions may differ.

For `CC[C@H](C)[C@@H]1NC(=O)[C@H](Cc2ccc(O)cc2)NC(=O)[C@@H](N)CSSC[C@@H](C(=O)N2CCC[C@H]2C(=O)N[C@@H](CC(C)C)C(=O)NCC(N)=O)NC(=O)[C@H](CC(N)=O)NC(=O)[C@H](CCC(N)=O)NC1=O` [oxytocin], in data set [1], the VFSS overall result is reported as “improved VFSS”, the “oesophageal transit (VFSS)” value is “improved oesophageal transit; also recorded: improve esophageal transit”, the “peristalsis (VFSS)” value was “complete normalization of peristalsis” and the tolerability of treatment result was “well tolerated”. The “upper oesophageal sphincter closure (VFSS)” value in data set [1] is reported as “normal upper oesophageal sphincter closure; also recorded: complete normalization”. Also, in data set [2], the “clinical symptoms of dysphagia” value is reported as “improved clinical symptoms of dysphagia”; the oesophageal transit entry is reported as “normalize”; the “oropharyngeal initiation and synchronisation” value was “normalize oropharyngeal initiation and synchronization”; the “stasis and reflux on VFSS after treatment” value is reported as “neither stasis nor reflux”. Further, the tolerability of treatment result in data set [2] is on record as “well tolerated”. For the same compound, in data set [2] (listed as OXT), the oesophageal transit entry is given as “normalization of oesophageal transit”; the “oropharyngeal initiation and synchronisation” value was “normalization of oropharyngeal initiation and synchronisation”. In addition, the “tolerability of intranasal administration” value in data set [3] was “well-tolerated”. Further, in data set [3] (intranasal), the “feeding and social skills” value was “significantly improves”.

Values taken from patent US20240197813A1, “TREATMENT OF DYSPHAGIA” (OT4B, priority 2021, published 2024).
